Measurements from US12146134B2, “Microfluidic devices and methods of use in the formation and control of nanoreactors” (Bio-Rad Laboratories, Inc., priority 2006, dated 2024).
{Fluorescein} = fluorescein label; {Biotin} = biotin label

B1: 101: 5′ Biotin-labeled oligonucleotide, SEQ ID NO: 1 (nucleic acid)
DNA: ATCCGCCCCAGCAGCTGCCAGGCACAGCCCCTAAACTCCTGATTTATGCTGCATCCATTTTGC
modifications: DNA, 5' {Biotin}, backbone not given here

Assays:
Oligonucleotide 102 = experiment: measurement of DNA hybridization using fluorescence polarization (FP) on the microfluidic device; type: binding; conditions: addition of oligonucleotide to the fluorescein-labeled 102
Text: (A) FP can be used to measure the binding of 2 DNA molecules on the microfluidic device. (B) Oligonucleotide 102 is complement to both 101 and 103. […] Oligonucleotides; #101:[NT] ID NO: 1); #102: [NT] ID NO: 2); #103: [NT] NO: 3).

Steptaviden = Steptaviden (Streptomyces avidinii, UniProt P22629); experiment: fluorescence polarization measurements in droplets inside the microfluidic device (biotin/streptavidin binding); conditions: droplets 65 to 75 um, 10 mM Borate pH 9, data normalized so P(Fluorescein)=0.0
Steptaviden, sequence (P22629 25-183): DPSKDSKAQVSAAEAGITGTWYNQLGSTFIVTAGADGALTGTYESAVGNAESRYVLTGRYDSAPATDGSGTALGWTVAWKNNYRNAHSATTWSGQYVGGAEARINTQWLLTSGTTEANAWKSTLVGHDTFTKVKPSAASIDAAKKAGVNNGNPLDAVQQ
Text: In addition to molecular beacons and Taqman, the devices of the present invention can be used to cany out fluorescence polarization as described herein. Most SNP assays can be adapted for both mini-sequencing and gene expression analysis. A series of fluorescence polarization measurements have been made inside a microfluidic device according to the present invention while looking at droplets containing Fluorescein, Fluorescein bound to biotin, and Fluorescein bound to biotin+Steptaviden. The fluorescence signal was split into two orthogonal polarizations: one parallel to the laser excitation polarization, and one perpendicular to the polarization. These signal were collected and analyzed to determine the change in polarization of the fluorescence for each of these binding conditions.
The Polarization is calculated from:
[formula] Where V=fluorescence signal polarized parallel to laser excitation polarization, and H=fluorescence signal polarized perpendicular.
The fluorescence station was modified to include cleanup polarizer for the laser and a polarizing beamsplitter with cleanup polarizers for collection. The two resulting fluorescence channels collect light with orthogonal polarizations (“Vertical” is parallel to the laser polarization, “Horizontal” is perpendicular to the laser polarization). […]

Row | Molecule | shift of mP value of labeled 102, indicative of binding (Oligonucleotide 102) | Polarization (mean of histogram grouping) (Steptaviden) [mP]
1 | 103: 5′ Fluorescein-labeled oligonucleotide, SEQ ID NO: 3 (DNA CTAAACTCCTGATTTATGCTGCATCCATTTTGC; DNA, 5' {Fluorescein}, backbone not given here) [compound 103] | shifts the mP value | 
2 | Biotinylated Fluorescein [Biotinalated Fluorescein] |  | 18.4
3 | B1 | shifts the mP value | 
